Measurements reported in article PMC7845594, “Novel Immune Modulators Enhance Caenorhabditis elegans Resistance to Multiple Pathogens” (mSphere, 2021).

Legend:
[1] = system: glp-4(bn2) worms exposed to P. aeruginosa isolate PA2-61; test: Liquid killing assay with cystic fibrosis isolate; type: in vivo, Caenorhabditis elegans; conditions: isolate PA2-61, serial 2-fold dilutions from 50 µM to 12.5 μM
Procedure: We also tested these strains against a P. aeruginosa isolate from a pediatric cystic fibrosis patient, P. aeruginosa PA2-61, that we previously characterized ([22]).
The minimum effective concentration was calculated from the lowest concentration that retained statistically significant rescue of glp-4(bn2) C. elegans, a temperature-sensitive sterile strain, from exposure to P. aeruginosa PA14. […] Compounds were added in serial 2-fold dilutions from 50 µM to 12.5 μM. *, P < 0.05; **, P < 0.01; ***, P < 0.001. P values were calculated using Student’s t test. At least six wells containing 20 worms each per condition per replicate were used for determination of liquid killing. EC values were calculated based on at least three biological replicates. Error bars represent the standard error of the mean.
Liquid killing of C. elegans was performed as previously described with some changes ([91]). In brief, an overnight culture of LB medium was inoculated with a single colony of Pseudomonas aeruginosa strain PA14. Then, 400 µl of culture was spread onto a 10-cm slow-kill agar plate ([91]) and grown for 24 h at 37°C, followed by 24 h at 25°C. Bacteria were scraped from the plate, resuspended in S Basal medium, and added to 384-well plates with small molecules dissolved in DMSO. Solution in wells contained a final concentration of 40% SK media, 59% S Basal medium, 1% DMSO, and small molecules. For all liquid-based killing assays, solvent control wells contained 1% DMSO. MgSO4 and CaCl2 (300 µM) and cholesterol (1.6 µg/ml) were added to aid in production of virulence factors. Worms were sorted into 384-well plates using a COPAS FlowSort (Union Biometrica, Holliston, MA), incubated at 25°C until the DMSO control was roughly 35 to 55% dead, washed four times using an EL406 microplate washer (BioTek, VT), and stained with 50 μl of Sytox Orange at 1 µM to fluorescently stain dead worms. Wells were imaged in bright-field and RFP channels using the BioTek Cytation5, followed by image analysis using the CellProfiler software package to calculate fraction of dead worms in each well. […]

C. elegans transcriptome = test: Transcriptome profiling (Affymetrix microarrays), differentially expressed genes; type: in vivo, Caenorhabditis elegans; conditions: for Fold Change: downregulated genes
Procedure: To gain additional insight into the effect of LK molecules on C. elegans, young-adult, wild-type worms were treated with each drug at 100 µM for 8 h in the absence of pathogen. RNA was collected, and transcriptome profiling was performed.
Data were determined using Affymetrix microarrays, as described in Materials and Methods. Download Table S3, XLSX file, 0.07 MB.
Transcriptome profiling was performed on ∼6,000 wild-type, young adult worms incubated with either LK molecules or DMSO for 8 h. RNA isolation was performed using TRIzol extraction, followed by cleanup using RNeasy columns according to the manufacturer’s protocol. Each condition was analyzed in triplicate. Microarray data have been deposited in the GEO database, accession number GSE137516. […] Clustering and generation of the heat map was performed using Cluster 3.0 ([98]) and Treeview ([99]), respectively. Fold change of genes were normalized to average fold change of that gene over all clustered conditions. Genes and conditions were clustered using Euclidean distance and average linkages. […] Microarray data for non-LK molecules were collected from GEO omnibus. WormEXP was used as a secondary method for confirming statistical significance of potential pathways stimulated by each of the LK molecules ([100]). Gene ontologies were generated using DAVID ([101], [102]).

[2] = Downregulated genes, Affy_ID 171867_x_at

Structure (SMILES): CN(C)/N=N/c1ccc(-c2cn(Cc3ccccc3)cn2)cc1 [LK38]
- Dose dependence of rescue in liquid killing [1]: dose-dependent rescue
- Fold Change (C. elegans transcriptome; Affy_ID 171867_x_at, listed under genes C09B9.6, F36H12.7, K07F5.1, R05F9.13, R13H9.2, R13H9.4, T13F2.10, T13F2.11, Y59E9AR.1, Y59E9AR.7, ZK354.1): 0.2521
- Fold Change (C. elegans transcriptome; Affy_ID 176276_s_at, listed under gene Y69A2AR.25 (LK34) or Y69A2AR.12 (LK38)): 0.3902
- Fold Change, gene ZK525.1 (C. elegans transcriptome; Downregulated genes, Affy_ID 171849_x_at): 0.4368
- Fold Change, gene ZK354.10 (C. elegans transcriptome; [2]): 0.2521
- Fold Change, gene ZK354.11 (C. elegans transcriptome; [2]): 0.2521
- Fold Change, gene ZK354.4 (C. elegans transcriptome; [2]): 0.2521
- Fold Change, gene ZK354.5 (C. elegans transcriptome; [2]): 0.2521
- Fold Change, gene ZK525.1 (C. elegans transcriptome; Downregulated genes, Affy_ID 172214_x_at): 0.3013
- Fold Change, gene ZK484.8 (C. elegans transcriptome; Downregulated genes, Affy_ID 172381_x_at): 0.4248
- Fold Change, gene ZK546.3 (C. elegans transcriptome; Downregulated genes, Affy_ID 172798_x_at): 0.1961
- Fold Change, gene ZK546.6 (C. elegans transcriptome; Downregulated genes, Affy_ID 172900_x_at): 0.1945
- Fold Change, gene ZK354.4 (C. elegans transcriptome; Downregulated genes, Affy_ID 172922_x_at): 0.2136
- Fold Change, gene ZK354.11 (C. elegans transcriptome; Downregulated genes, Affy_ID 172925_x_at): 0.2447
- Fold Change, gene ZK354.5 (C. elegans transcriptome; Downregulated genes, Affy_ID 172928_x_at): 0.2421
- Fold Change, gene ZK550.2 (C. elegans transcriptome; Downregulated genes, Affy_ID 179513_at): 0.2459
- Fold Change, gene ZK484.5 (C. elegans transcriptome; Downregulated genes, Affy_ID 182193_at): 0.3776
- Fold Change, gene ZK666.7 (C. elegans transcriptome; Downregulated genes, Affy_ID 194066_s_at): 0.2101
- Fold Change (C. elegans transcriptome; Gene C05C12.3, Affy_ID 183355_s_at): 0.3153
- Fold Change (C. elegans transcriptome; Gene C08E3.1, Affy_ID 172309_x_at): 0.1357
- Fold Change (C. elegans transcriptome; Gene C08E3.13, Affy_ID 172565_x_at): 0.1172
- Fold Change (C. elegans transcriptome; Gene C08F11.13, Affy_ID 175229_at): 0.2733
- Fold Change (C. elegans transcriptome; Gene C08F11.13, Affy_ID 185001_at): 0.09464
- Fold Change (C. elegans transcriptome; Gene C09B9.6, Affy_ID 172903_x_at): 0.2435
- Fold Change (C. elegans transcriptome; Gene C14C6.2, Affy_ID 183566_at): 0.3131
- Fold Change (C. elegans transcriptome; Gene R01E6.3, Affy_ID 189628_at): 0.3184
- Fold Change (C. elegans transcriptome; Gene R03E9.1, Affy_ID 193723_s_at): 0.2835
- Fold Change (C. elegans transcriptome; Gene R04B5.9, Affy_ID 191440_at): 0.3161
- Fold Change (C. elegans transcriptome; Gene R05F9.13, Affy_ID 172714_x_at): 0.2707
- Fold Change (C. elegans transcriptome; Gene R05F9.3, Affy_ID 172725_x_at): 0.4569
- Fold Change (C. elegans transcriptome; Gene R05F9.8, Affy_ID 172724_x_at): 0.2625
- Fold Change (C. elegans transcriptome; Gene R12C12.1, Affy_ID 190616_at): 0.3782
- Fold Change (C. elegans transcriptome; Gene R13H9.2, Affy_ID 172771_x_at): 0.2091
- Fold Change (C. elegans transcriptome; Gene R13H9.4, Affy_ID 172770_x_at): 0.2077
- Fold Change (C. elegans transcriptome; Gene T01C3.4, Affy_ID 188106_at): 0.02377
- Fold Change (C. elegans transcriptome; Gene T02B11.3, Affy_ID 174051_s_at): 0.3852
- Fold Change (C. elegans transcriptome; Gene T07C4.4, Affy_ID 178149_s_at): 0.3385
- Fold Change (C. elegans transcriptome; Gene T07G12.5, Affy_ID 188496_s_at): 0.1128
- Fold Change (C. elegans transcriptome; Gene T08B1.6, Affy_ID 192296_at): 0.264
- Fold Change (C. elegans transcriptome; Gene T08B2.12, Affy_ID 184685_s_at): 0.1122
- Fold Change (C. elegans transcriptome; Gene T09F5.9, Affy_ID 188947_at): 0.335
- Fold Change (C. elegans transcriptome; Gene T13F2.10, Affy_ID 172906_x_at): 0.282
- Fold Change (C. elegans transcriptome; Gene T13F2.11, Affy_ID 172905_x_at): 0.2555
- Fold Change (C. elegans transcriptome; Gene T14B4.4, Affy_ID 190598_at): 0.3119
- Fold Change (C. elegans transcriptome; Gene T15B7.9, Affy_ID 182858_at): 0.3485
- Fold Change (C. elegans transcriptome; Gene T20D4.11, Affy_ID 184438_at): 0.08285
- Fold Change (C. elegans transcriptome; Gene T22H2.6, Affy_ID 180962_s_at): 0.4528
- Fold Change (C. elegans transcriptome; Gene T23B7.1, Affy_ID 172486_x_at): 0.4388
- Fold Change (C. elegans transcriptome; Gene T23B12.8, Affy_ID 184855_at): 0.1808
- Fold Change (C. elegans transcriptome; Gene T23F4.1, Affy_ID 180223_s_at): 0.03953
- Fold Change (C. elegans transcriptome; Gene T23F4.3, Affy_ID 179815_at): 0.03894
- Fold Change (C. elegans transcriptome; Gene T27A10.7, Affy_ID 186153_s_at): 0.1891
- Fold Change (C. elegans transcriptome; Gene T27E4.7, Affy_ID 173756_at): 0.3486
- Fold Change (C. elegans transcriptome; Gene T27E4.7, Affy_ID 173757_s_at): 0.3375
- Fold Change (C. elegans transcriptome; Gene T28H11.6, Affy_ID 172704_x_at): 0.3336
- Fold Change (C. elegans transcriptome; Gene W04B5.2, Affy_ID 180561_at): 0.445
- Fold Change (C. elegans transcriptome; Gene W07B8.5, Affy_ID 191887_s_at): 0.336
- Fold Change (C. elegans transcriptome; Gene Y40D12A.2, Affy_ID 191017_at): 0.3923
